From PubChem BioAssay (NCI)
Several values for one entry are separate records, joined by “and”; a condition that tells them apart may be missing. Equal entries are not always repeated.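 Each compound was tested at five concentrations against cells in 96-well plates for 48 hours. At the GI50, growth is halved. TGI is the concentration that stops growth completely.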

Columns and labels:
Assay in all cases: inhibition of tumour cell growth, NCI panel, 48 h
[1] = system: SF-539 CNS
[2] = system: A549 NSCLC
[3] = system: NCI-H522 lung
[4] = system: NCI-H23 lung
[5] = system: UACC-62 melanoma
[6] = system: SK-OV-3 ovarian
[7] = system: SW-620 colon
[8] = system: DU-145 prostate
[9] = system: MCF7 breast
[10] = system: HT29 colon

CCn1cnc(C[C@H](NC(=O)[C@@H](NC(=O)Nc2cc(C(F)(F)F)cc(C(F)(F)F)c2)C(C)(C)C)C(=O)OC)c1
GI50 [1]: > 10 µM | TGI [1]: > 10 µM | GI50 [2]: > 10 µM | TGI [2]: > 10 µM | GI50 [3]: > 10 µM | TGI [3]: > 10 µM | GI50 [4]: > 10 µM | TGI [4]: > 10 µM | GI50 [5]: > 10 µM | TGI [5]: > 10 µM | GI50 [6]: > 10 µM | TGI [6]: > 10 µM | GI50 [7]: > 10 µM | TGI [7]: > 10 µM | GI50 [8]: > 10 µM | TGI [8]: > 10 µM | GI50 [9]: > 10 µM | TGI [9]: > 10 µM | GI50 [10]: > 10 µM | TGI [10]: > 10 µM

COC(=O)c1cc2c3cc(Cl)ccc3[nH]c2c2ncccc12
GI50 [1]: 51.8 µM | TGI [1]: > 100 µM | GI50 [2]: > 100 µM | TGI [2]: > 100 µM | GI50 [3]: > 100 µM | TGI [3]: > 100 µM | GI50 [4]: > 100 µM | TGI [4]: > 100 µM | GI50 [5]: > 100 µM | TGI [5]: > 100 µM | GI50 [6]: > 100 µM | TGI [6]: > 100 µM | GI50 [7]: > 100 µM | TGI [7]: > 100 µM | GI50 [8]: > 100 µM | TGI [8]: > 100 µM | GI50 [9]: > 100 µM | TGI [9]: > 100 µM | GI50 [10]: > 100 µM | TGI [10]: > 100 µM

CC(C)C[C@H](NC(=O)[C@@H](N)Cc1cccc2ccccc12)B(O)O
GI50 [1]: 0.178 µM | GI50 [2]: 0.926 µM | TGI [3]: 0.741 µM | GI50 [4]: 0.245 µM | GI50 [5]: 0.425 µM | TGI [5]: 1.28 µM and 0.148 µM | GI50 [6]: 2 µM | GI50 [7]: 0.231 µM | GI50 [8]: 0.0736 µM | TGI [8]: 6.14 µM and 1.15 µM | GI50 [9]: 0.389 µM | TGI [9]: 50 µM | GI50 [10]: 0.216 µM

CC(C)OC(=O)NNc1c(Cl)cc(Cl)cc1Cl
TGI [1]: > 100 µM | TGI [2]: > 100 µM | TGI [3]: 95.4 µM | TGI [4]: > 100 µM | TGI [5]: > 100 µM | TGI [6]: > 100 µM | TGI [7]: > 100 µM | TGI [8]: > 100 µM | TGI [9]: > 100 µM | TGI [10]: > 100 µM

C(#Cc1ccccc1C#Cc1cnccn1)c1cnccn1
GI50 [1]: 27.8 µM | TGI [1]: > 100 µM | GI50 [2]: 34.5 µM | TGI [2]: > 86.3 µM | GI50 [3]: > 39.2 µM | TGI [3]: > 61.7 µM | GI50 [4]: 21.9 µM | TGI [4]: 57.3 µM | GI50 [5]: 17.5 µM | TGI [5]: 51.4 µM | GI50 [6]: 56 µM | TGI [6]: > 100 µM | GI50 [7]: 40.2 µM | TGI [7]: > 100 µM | GI50 [8]: 21.8 µM | TGI [8]: > 100 µM | GI50 [9]: 24.9 µM | TGI [9]: > 67.5 µM | GI50 [10]: 41.8 µM | TGI [10]: > 100 µM

CCOC(=O)c1ccc(N[C@@H]2c3cc4c(cc3C(c3cc(OC)c(O)c(OC)c3)[C@H]3C(=O)OCC32)OCO4)cc1 (stereo partly specified)
GI50 [1]: 0.34 µM | TGI [1]: 0.951 µM and 1.97 µM | GI50 [2]: 0.103 µM | TGI [2]: 2.76 µM | GI50 [3]: 0.395 µM and 1.28 µM | TGI [3]: 4.98 µM | GI50 [4]: 0.191 µM | TGI [4]: 0.768 µM and 2.24 µM | GI50 [5]: 0.382 µM | TGI [5]: 4.08 µM | GI50 [6]: 0.37 µM | TGI [6]: 5.16 µM | GI50 [7]: 0.536 µM | TGI [7]: 28.4 µM | TGI [8]: > 100 µM | TGI [9]: 20.3 µM | GI50 [10]: 0.949 µM | TGI [10]: 6.92 µM

CCCCCCCCCCCCNCCCc1ccccc1
GI50 [1]: 1.89 µM | TGI [1]: 3.32 µM | GI50 [2]: 1.78 µM | TGI [2]: 3.35 µM | GI50 [3]: 1.62 µM | TGI [3]: 3.03 µM | GI50 [4]: 1.9 µM | TGI [4]: 3.65 µM | GI50 [5]: 1.76 µM | TGI [5]: 3.29 µM | GI50 [6]: 2.37 µM | TGI [6]: 5.37 µM | GI50 [7]: 1.64 µM | TGI [7]: 3.28 µM | GI50 [8]: 1.92 µM | TGI [8]: 3.51 µM | GI50 [9]: 1.81 µM | TGI [9]: 3.35 µM | GI50 [10]: 1.75 µM | TGI [10]: 3.21 µM
